Key:
Assay in all cases: drug sensitivity score (DSS) (DSS (dimensionless)); higher = more sensitive (stronger drug response)
[1] = tested on: FIMM-PDC1 (patient-derived ovarian cancer cells); conditions: genetic perturbation: none (patient-derived cell culture)
Outline: (§1)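 Ovarian cancer cell lines, after at least three days of shRNA induction with 100 ng/ml doxycycline, and patient-derived cultures were plated at 1 000 – 1 500 cells per well into 384-well plates pre-loaded with drugs at five concentrations spanning a 10,000-fold range. Plates were then kept for three days at 37 °C and 5.0 % CO2. Viability was measured as CellTiter-Glo luminescence on a PHERAstar FS, and each drug's dose-response curve was reduced to a drug sensitivity score computed by a previously described method.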

[2] = tested on: FIMM-PDC3 (patient-derived ovarian cancer cells); conditions: genetic perturbation: none (patient-derived cell culture)
Outline: as §1

[3] = tested on: FIMM-PDC4 (patient-derived ovarian cancer cells); conditions: genetic perturbation: none (patient-derived cell culture)
Outline: as §1

[4] = tested on: FIMM-PDC5 (patient-derived ovarian cancer cells); conditions: genetic perturbation: none (patient-derived cell culture)
Outline: as §1

[5] = tested on: FIMM-PDC6 (patient-derived ovarian cancer cells); conditions: genetic perturbation: none (patient-derived cell culture)
Outline: as §1

[6] = tested on: FIMM-PDC7 (patient-derived ovarian cancer cells); conditions: genetic perturbation: none (patient-derived cell culture)
Outline: as §1

[7] = tested on: JHOS2
Outline: as §1

[8] = tested on: Kuramochi
Outline: as §1

[9] = tested on: OVSAHO
Outline: as §1

[10] = genetic perturbation: DOX-induced PTK7 shRNA knockdown
[11] = genetic perturbation: DOX-induced control shRNA

Structure (SMILES): CN1CCN(CCOc2cc(OC3CCOCC3)c3c(Nc4c(Cl)ccc5c4OCO5)ncnc3c2)CC1 [Saracatinib]
- drug sensitivity score [1]: 4.6
- drug sensitivity score [2]: 12
- drug sensitivity score [3]: 13.7
- drug sensitivity score [4]: 15.2
- drug sensitivity score [5]: 9.4
- drug sensitivity score [6]: 5.8
- drug sensitivity score [7, 10]: 1.4
- drug sensitivity score [7, 11]: 7.3
- drug sensitivity score [8, 10]: 10.6
- drug sensitivity score [8, 11]: 5.2
- drug sensitivity score [9, 10]: 12.4
- drug sensitivity score [9, 11]: 6.6

Structure (SMILES): O=C(/C=C\n1cnc(-c2cc(C(F)(F)F)cc(C(F)(F)F)c2)n1)NNc1cnccn1 [Selinexor]
- drug sensitivity score [1]: 12.4
- drug sensitivity score [2]: 22.4
- drug sensitivity score [3]: 17.1
- drug sensitivity score [4]: 20.1
- drug sensitivity score [5]: 24.4
- drug sensitivity score [6]: 19.5
- drug sensitivity score [7, 10]: 18.8
- drug sensitivity score [7, 11]: 14.5
- drug sensitivity score [8, 10]: 9.85
- drug sensitivity score [8, 11]: 13.5
- drug sensitivity score [9, 10]: 14.8
- drug sensitivity score [9, 11]: 7.4

Structure (SMILES): Cn1cnc2c(F)c(Nc3ccc(Br)cc3Cl)c(C(=O)NOCCO)cc21 [Selumetinib]
- drug sensitivity score [1]: < 0
- drug sensitivity score [2]: 4.9
- drug sensitivity score [3]: 10
- drug sensitivity score [4]: 11.4
- drug sensitivity score [5]: 7.6
- drug sensitivity score [6]: 10.3
- drug sensitivity score [7, 10]: 0.7
- drug sensitivity score [7, 11]: 8.6
- drug sensitivity score [8, 10]: 7.5
- drug sensitivity score [8, 11]: 2
- drug sensitivity score [9, 10]: 13.5
- drug sensitivity score [9, 11]: 1.7

Structure (SMILES): Nc1nc2cc(-c3ccc4ncc(C(=O)N5CCOCC5)n4c3)ccc2o1 [Serabelisib]
- drug sensitivity score [1]: 0.6
- drug sensitivity score [2]: 0.6
- drug sensitivity score [3]: 4.1
- drug sensitivity score [4]: 5.2
- drug sensitivity score [5]: 3.1
- drug sensitivity score [6]: 9.1
- drug sensitivity score [7, 10]: 0.9
- drug sensitivity score [7, 11]: 0.2
- drug sensitivity score [8, 10]: < 0
- drug sensitivity score [8, 11]: < 0
- drug sensitivity score [9, 10]: 0.8
- drug sensitivity score [9, 11]: < 0

Structure (SMILES): O=C(O)c1ccc2c(c1)nc(Nc1cccc(Cl)c1)c1ccncc12 [Silmitasertib]
- drug sensitivity score [1]: 3.2
- drug sensitivity score [2]: 4.8
- drug sensitivity score [3]: 1.5
- drug sensitivity score [4]: 6.6
- drug sensitivity score [5]: < 0
- drug sensitivity score [6]: 2.8
- drug sensitivity score [7, 10]: 3.3
- drug sensitivity score [7, 11]: 3.6
- drug sensitivity score [8, 10]: 5.55
- drug sensitivity score [8, 11]: 4.5
- drug sensitivity score [9, 10]: 5.5
- drug sensitivity score [9, 11]: 5.8

Structure (SMILES): CCS(=O)(=O)c1cccc(-c2cc(C(=O)NC3CCN(C)CC3)c(C)c3[nH]c4ncc(C)cc4c23)c1 [TAK-901]
- drug sensitivity score [1]: 4.85
- drug sensitivity score [2]: 4.3
- drug sensitivity score [3]: 7.9
- drug sensitivity score [4]: 6.5
- drug sensitivity score [5]: 7.3
- drug sensitivity score [6]: 3
- drug sensitivity score [7, 10]: 3.2
- drug sensitivity score [7, 11]: 5.3
- drug sensitivity score [8, 10]: 7.3
- drug sensitivity score [8, 11]: 6.4
- drug sensitivity score [9, 10]: 8.3
- drug sensitivity score [9, 11]: 5.7

Structure (SMILES): COc1cc(Nc2ncc(F)c(Nc3ccc4c(n3)NC(=O)C(C)(C)O4)n2)cc(OC)c1OC [Tamatinib]
- drug sensitivity score [1]: < 0
- drug sensitivity score [2]: 3.8
- drug sensitivity score [3]: 6.4
- drug sensitivity score [4]: 12.9
- drug sensitivity score [5]: 1.6
- drug sensitivity score [6]: 8.6
- drug sensitivity score [7, 10]: 4.2
- drug sensitivity score [7, 11]: 0.1
- drug sensitivity score [8, 10]: 2.9
- drug sensitivity score [8, 11]: 1.1
- drug sensitivity score [9, 10]: 7
- drug sensitivity score [9, 11]: 1.1

Structure (SMILES): Cc1nc(-c2cn3c(n2)-c2ccc(-c4cnn(C(C)(C)C(N)=O)c4)cc2OCC3)n(C(C)C)n1 [Taselisib]
- drug sensitivity score [1]: 4.2
- drug sensitivity score [2]: 6.7
- drug sensitivity score [3]: 9.5
- drug sensitivity score [4]: 11.6
- drug sensitivity score [5]: 6.3
- drug sensitivity score [6]: 12.3
- drug sensitivity score [7, 10]: 4.3
- drug sensitivity score [7, 11]: 2.4
- drug sensitivity score [8, 10]: 4.5
- drug sensitivity score [8, 11]: 1.1
- drug sensitivity score [9, 10]: 3.1
- drug sensitivity score [9, 11]: 4.7

Structure (SMILES): CO[C@H]1C[C@@H]2CC[C@@H](C)[C@@](O)(O2)C(=O)C(=O)N2CCCC[C@H]2C(=O)O[C@H]([C@H](C)C[C@@H]2CC[C@@H](OC(=O)C(C)(CO)CO)[C@H](OC)C2)CC(=O)[C@H](C)/C=C(\C)[C@@H](O)[C@@H](OC)C(=O)[C@H](C)C[C@H](C)/C=C/C=C/C=C/1C [Temsirolimus]
- drug sensitivity score [1]: 2.25
- drug sensitivity score [2]: 2.8
- drug sensitivity score [3]: 8.7
- drug sensitivity score [4]: 12.2
- drug sensitivity score [5]: 5.7
- drug sensitivity score [6]: 4
- drug sensitivity score [7, 10]: < 0
- drug sensitivity score [7, 11]: 7.2
- drug sensitivity score [8, 10]: 4.5
- drug sensitivity score [8, 11]: 2.7
- drug sensitivity score [9, 10]: 2.3
- drug sensitivity score [9, 11]: 6.6

Structure (SMILES): COc1cc2c(Nc3ccc(Cl)c(Cl)c3F)ncnc2cc1OC[C@@H]1C[C@@H]2CN(C)C[C@@H]2C1 [Tesevatinib]
- drug sensitivity score [1]: 2.25
- drug sensitivity score [2]: 13.6
- drug sensitivity score [3]: 19.2
- drug sensitivity score [4]: 23.9
- drug sensitivity score [5]: 16.4
- drug sensitivity score [6]: 11.5
- drug sensitivity score [7, 10]: < 0
- drug sensitivity score [7, 11]: 3.1
- drug sensitivity score [8, 10]: 1.35
- drug sensitivity score [8, 11]: 1
- drug sensitivity score [9, 10]: 0.5
- drug sensitivity score [9, 11]: 1.9

Structure (SMILES): Nc1nc2[nH]cnc2c(=S)[nH]1 [Thioguanine]
- drug sensitivity score [1]: 5.75
- drug sensitivity score [2]: < 0
- drug sensitivity score [3]: 6.6
- drug sensitivity score [4]: 6.4
- drug sensitivity score [5]: 2.9
- drug sensitivity score [6]: 4.7
- drug sensitivity score [7, 10]: 1.9
- drug sensitivity score [7, 11]: 1
- drug sensitivity score [8, 10]: 9.75
- drug sensitivity score [8, 11]: 7
- drug sensitivity score [9, 10]: 4.9
- drug sensitivity score [9, 11]: 8.1

Structure (SMILES): CC[C@@]1(O)C(=O)OCc2c1cc1n(c2=O)Cc2cc3c(CN(C)C)c(O)ccc3nc2-1 [Topotecan]
- drug sensitivity score [1]: 10.3
- drug sensitivity score [2]: 12.4
- drug sensitivity score [3]: 7.8
- drug sensitivity score [4]: 14.4
- drug sensitivity score [5]: 12.8
- drug sensitivity score [6]: 12.2
- drug sensitivity score [7, 10]: 10.5
- drug sensitivity score [7, 11]: 11.5
- drug sensitivity score [8, 10]: 6.85
- drug sensitivity score [8, 11]: 6.4
- drug sensitivity score [9, 10]: 8.7
- drug sensitivity score [9, 11]: 7.5

Structure (SMILES): CC(C)C[C@@H](C(=O)N[C@H](C(=O)OC1CCCC1)c1ccccc1)[C@H](O)C(=O)NO [Tosedostat]
- drug sensitivity score [1]: 12.6
- drug sensitivity score [2]: 14.9
- drug sensitivity score [3]: 9.5
- drug sensitivity score [4]: 12.1
- drug sensitivity score [5]: 11.1
- drug sensitivity score [6]: 6.4
- drug sensitivity score [7, 10]: 29.8
- drug sensitivity score [7, 11]: 14.2
- drug sensitivity score [8, 10]: 0.75
- drug sensitivity score [8, 11]: 0.7
- drug sensitivity score [9, 10]: 3.1
- drug sensitivity score [9, 11]: 6.4

Structure (SMILES): Cc1cc(Nc2cc(N3CCN(C)CC3)nc(Sc3ccc(NC(=O)C4CC4)cc3)n2)n[nH]1 [Tozasertib]
- drug sensitivity score [1]: 2.9
- drug sensitivity score [2]: 4.2
- drug sensitivity score [3]: 5.7
- drug sensitivity score [4]: 6.2
- drug sensitivity score [5]: 1.6
- drug sensitivity score [6]: 3.7
- drug sensitivity score [7, 10]: 4.1
- drug sensitivity score [7, 11]: 4.3
- drug sensitivity score [8, 10]: 4.2
- drug sensitivity score [8, 11]: 2.4
- drug sensitivity score [9, 10]: 3.9
- drug sensitivity score [9, 11]: 1.9

Structure (SMILES): CC(=O)Nc1cccc(-n2c(=O)n(C3CC3)c(=O)c3c(Nc4ccc(I)cc4F)n(C)c(=O)c(C)c32)c1 [Trametinib]
- drug sensitivity score [1]: 0.75
- drug sensitivity score [2]: 4.8
- drug sensitivity score [3]: 13
- drug sensitivity score [4]: 17.2
- drug sensitivity score [5]: 10.3
- drug sensitivity score [6]: 9
- drug sensitivity score [7, 10]: 1.6
- drug sensitivity score [7, 11]: 12.5
- drug sensitivity score [8, 10]: 8.9
- drug sensitivity score [8, 11]: 4.5
- drug sensitivity score [9, 10]: 10.6
- drug sensitivity score [9, 11]: 7.3

Structure (SMILES): Nc1cc(F)ccc1NC(=O)c1ccc(CNC(=O)/C=C/c2cccnc2)cc1 [Tucidinostat]
- drug sensitivity score [1]: 5.9
- drug sensitivity score [2]: 7.7
- drug sensitivity score [3]: 3.5
- drug sensitivity score [4]: 7.3
- drug sensitivity score [5]: 6.3
- drug sensitivity score [6]: 7.4
- drug sensitivity score [7, 10]: 2
- drug sensitivity score [7, 11]: 2.1
- drug sensitivity score [8, 10]: 6.65
- drug sensitivity score [8, 11]: 1.5
- drug sensitivity score [9, 10]: 6.5
- drug sensitivity score [9, 11]: 2.1

— the supplement of paper PMC9386025
